Like-named read-outs stand apart in the source and are kept apart here.
Experiments:
human PARS enzyme = target: T1, human PARS enzyme (Homo sapiens, UniProt P09874); test: PARS inhibition test (in vitro); assay type: biochemical; conditions: recombinant human PARS, [14C]-NAD+, 10 min room temperature
T1 construct: made in house; host or cells: baculovirus expression system (Bac-To-Bac, Life Technologies)
Protocol: The activity of substances as PARS inhibitors is tested in accordance with the method of Ushiro [Ushiro et al., J. Biol. Chem., 262, 2352-2357 (1987)]. To this end, recombinantly expressed (Bac-To-Bac, Baculo virus expression system; Instruction Manual; Life Technologies) human PARS enzyme is activated in a buffer which contains radioactively labeled [^14C]-NAD^+. The poly(ADP-ribose) units that are synthesized are precipitated using trichloroacetic acid, and the proportion of labeled protein is determined by scintillation measurements. Incubation of PARS with inhibitors leads to a decrease in the proportion of labeled protein and thus to a reduced radioactivity.
Inhibition of the PARS activity can be represented as a percentage of PARS inhibition in incubation with different substances or as the concentration at which 50% of the enzyme is inhibited, i.e. as IC50 value.
The compounds to be tested are dissolved in DMSO (dimethyl sulfoxide) at a concentration of 10 mM. The assay is carried out in deep 96-well plates. Per well, 70 μl of buffer, 10 μl of DNA, 10 μl of histones, 10 μl of NAD^+/[^14C]-NAD^+ mix and 0.5-5 μl of PARS (about 10,000 cpm/test) are combined with 1 μl of the compounds (final concentration 0.001-10 μM), to give a total volume of about 110 μl. The mixture is incubated at room temperature for 10 min, and 1 ml of ice-cold TCA solution is then added, and the precipitated labeled proteins are sucked onto a filter paper (printed filter mat A; from Wallac) using a harvester (from Scatron). The filter is dried, sealed together with a scintillation sheet (Multilex A; from Wallac) and measured in a p counter for 1 min per well.
In addition to the substances described in this application, the known PARS inhibitor 1,5-dihydroxyisoquinoline (DHCH) is tested as reference substance. The results of the test are stated as IC50 values for the inhibition of PARS.

MHEC5-T cells = test: Cell protection assay (in vitro), H2O2-induced cell death; assay type: cell-based; conditions: MHEC5-T endothelial cells
Protocol: In accordance with a method described by Bowes [Bowes et al., Br. J. Pharmacol., 124, 1760-1766 (1998)], the ability of PARS inhibitors to protect cells against cell death induced by incubation with H2O2 is examined in a cell protection assay. Incubation of endothelial cells with H2O2 results in the generation of DNA strand breaks which in turn activate PARS, resulting in a drastic energy decrease in the cells and in cell death. Living cells are quantified by a fluorimetric redox indicator (Alamar blue), which is converted in the electron transport system of the mitochondria.
Specifically, 7500 MHEC5-T cells/well (DSM ACC 336; German collection of microorganisms and cell cultures) are sown in 4 replications on a 96-well plate. After 24 hours, the cells are incubated with 3 mM aqueous H2O2 solution and differing concentrations of the substances in the presence of 6% by volume of Alamar blue solution in the medium at 37° C. for 5 hours. The reference substance used is 10 μM 1,5-dihydroxyisoquinoline (DHCH) solution. After the incubation, the fluorescence is measured at an excitation wavelength of 530-560 nm and an emission wavelength of 590 nm. The percentage for the cell protection is calculated as the difference between the living cells treated only with H2O2 and the cells treated with H2O2 and PARS inhibitors. The internal standard used is 10 μM DHCH, which is defined as 100% protection. The results obtained for the other substances are compared to this value.
The EC50 values indicate the concentration at which 50% of maximum cell protection is reached, maximum protection by 10 μM DHCH being defined as 100%. DHCH has an EC50 value of 2 μM.

[1] = 3 mM H2O2, 5 hours, Alamar blue, 10 μM DHCH defined as 100% protection, read-out: Cell protection (in vitro) EC50

T1 sequence (P09874 whole entry): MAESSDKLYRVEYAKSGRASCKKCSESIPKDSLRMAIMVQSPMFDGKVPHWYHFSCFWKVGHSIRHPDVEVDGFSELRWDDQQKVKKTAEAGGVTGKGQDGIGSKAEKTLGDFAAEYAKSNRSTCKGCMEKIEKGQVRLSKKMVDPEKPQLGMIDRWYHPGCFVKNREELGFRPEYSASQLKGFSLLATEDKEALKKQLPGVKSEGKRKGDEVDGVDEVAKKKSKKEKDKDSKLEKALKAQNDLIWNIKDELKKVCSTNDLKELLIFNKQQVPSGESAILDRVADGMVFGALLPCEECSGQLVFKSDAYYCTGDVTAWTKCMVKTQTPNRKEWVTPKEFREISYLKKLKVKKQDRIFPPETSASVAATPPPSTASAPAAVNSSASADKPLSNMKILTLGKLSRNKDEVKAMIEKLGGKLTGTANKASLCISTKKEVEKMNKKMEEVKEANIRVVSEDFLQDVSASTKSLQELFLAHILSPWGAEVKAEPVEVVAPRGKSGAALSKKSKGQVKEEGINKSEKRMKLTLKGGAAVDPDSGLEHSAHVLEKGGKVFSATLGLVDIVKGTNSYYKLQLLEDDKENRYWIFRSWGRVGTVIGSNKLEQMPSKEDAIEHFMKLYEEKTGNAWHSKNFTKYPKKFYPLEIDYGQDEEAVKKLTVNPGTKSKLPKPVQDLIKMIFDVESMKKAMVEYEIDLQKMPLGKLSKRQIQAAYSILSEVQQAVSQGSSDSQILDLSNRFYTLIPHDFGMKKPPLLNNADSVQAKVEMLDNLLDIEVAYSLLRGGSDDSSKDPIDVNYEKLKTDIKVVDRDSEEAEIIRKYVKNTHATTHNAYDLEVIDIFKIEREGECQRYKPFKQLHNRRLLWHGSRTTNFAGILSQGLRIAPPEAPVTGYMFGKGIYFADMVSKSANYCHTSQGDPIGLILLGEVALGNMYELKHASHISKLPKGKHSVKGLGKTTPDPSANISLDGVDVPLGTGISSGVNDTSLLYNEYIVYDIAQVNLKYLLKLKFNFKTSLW

O=c1[nH]c(=O)n(CCc2ccc(Br)cc2)c2c1CSCC2 [Example 1, 1-[2-(4-Bromophenyl)ethyl]-1,5,7,8-tetrahydro-2H-thiopyrano[4,3-d]pyrimidine-2,4(3H)-dione] gave an IC50 (human PARS enzyme) of 60 nM.

Cc1cn(CCCn2c3c(c(=O)[nH]c2=O)CSCC3)cn1 [Example 8, 1-[3-(4-Methyl-1H-imidazol-1-yl)propyl]-1,5,7,8-tetrahydro-2H-thiopyrano[4,3-d]pyrimidine-2,4(3H)-dione] gave an IC50 (human PARS enzyme) of 85 nM.

O=c1[nH]c(=O)n(CCCn2cnc([N+](=O)[O-])c2)c2c1CSCC2 [Example 65] was tested, and the EC50 (MHEC5-T cells; [1]) was 90 nM.

For CC(C)N1CCN(C(=O)c2ccc(CCn3c4c(c(=O)[nH]c3=O)CSCC4)cc2)CC1 [Example 62], the IC50 (human PARS enzyme) was 800 nM.

Oc1cccc2c(O)nccc12 [DHCH, 1,5-dihydroxyisoquinoline, reference compound] gave an IC50 (human PARS enzyme) of 300 nM and an EC50 (MHEC5-T cells; 3 mM H2O2, maximum protection by 10 μM DHCH defined as 100%, read-out: EC50 value cell protection) of 2000 nM.

O=c1[nH]c(=O)n(CCc2cccnc2)c2c1CSCC2 [Example 66] was tested, and the EC50 (MHEC5-T cells; [1]) was 650 nM.

Compound O=Cc1ccc(CCn2c3c(c(=O)[nH]c2=O)CSCC3)cc1 [Example 5] has an EC50 (MHEC5-T cells; [1]) of 150 nM.

With Cc1[nH]ncc1CCCn1c2c(c(=O)[nH]c1=O)CSCC2 [Example 53] the IC50 (human PARS enzyme) was 80 nM.

Compound O=c1[nH]c(=O)n(CCCn2ccnc2)c2c1CSCC2 [Example 76] has an EC50 (MHEC5-T cells; [1]) of 500 nM.

O=c1[nH]c(=O)n(CCc2ccc(CNCCO)cc2)c2c1CSCC2 [Example 6, 1-[2-(4-{[(2-Hydroxyethyl)amino]methyl}phenyl)ethyl]-1,5,7,8-tetrahydro-2H-thiopyrano-[4,3-d]pyrimidine-2,4(3H)-dione] gave an IC50 (human PARS enzyme) of 50 nM.

O=c1[nH]c(=O)n(CCc2ccc([N+](=O)[O-])cc2)c2c1CSCC2 [Example 40] was tested, and the IC50 (human PARS enzyme) was 20 nM.

Work on O=c1[nH]c(=O)n(Cc2cccnc2)c2c1CSCC2 [Example 56] yielded an IC50 (human PARS enzyme) of 75 nM.

With O=c1[nH]c(=O)n(CCc2ccc(CN3CCCCC3)cc2)c2c1CSCC2 [Example 61] the EC50 (MHEC5-T cells; [1]) was 100 nM.
